The target of the first test is T1, F508del (Homo sapiens, UniProt P13569, DEL508-508).
T1 construct: expressed in transfected cells
T1 sequence (P13569 with tags, fused parts or gaps DEL508-508): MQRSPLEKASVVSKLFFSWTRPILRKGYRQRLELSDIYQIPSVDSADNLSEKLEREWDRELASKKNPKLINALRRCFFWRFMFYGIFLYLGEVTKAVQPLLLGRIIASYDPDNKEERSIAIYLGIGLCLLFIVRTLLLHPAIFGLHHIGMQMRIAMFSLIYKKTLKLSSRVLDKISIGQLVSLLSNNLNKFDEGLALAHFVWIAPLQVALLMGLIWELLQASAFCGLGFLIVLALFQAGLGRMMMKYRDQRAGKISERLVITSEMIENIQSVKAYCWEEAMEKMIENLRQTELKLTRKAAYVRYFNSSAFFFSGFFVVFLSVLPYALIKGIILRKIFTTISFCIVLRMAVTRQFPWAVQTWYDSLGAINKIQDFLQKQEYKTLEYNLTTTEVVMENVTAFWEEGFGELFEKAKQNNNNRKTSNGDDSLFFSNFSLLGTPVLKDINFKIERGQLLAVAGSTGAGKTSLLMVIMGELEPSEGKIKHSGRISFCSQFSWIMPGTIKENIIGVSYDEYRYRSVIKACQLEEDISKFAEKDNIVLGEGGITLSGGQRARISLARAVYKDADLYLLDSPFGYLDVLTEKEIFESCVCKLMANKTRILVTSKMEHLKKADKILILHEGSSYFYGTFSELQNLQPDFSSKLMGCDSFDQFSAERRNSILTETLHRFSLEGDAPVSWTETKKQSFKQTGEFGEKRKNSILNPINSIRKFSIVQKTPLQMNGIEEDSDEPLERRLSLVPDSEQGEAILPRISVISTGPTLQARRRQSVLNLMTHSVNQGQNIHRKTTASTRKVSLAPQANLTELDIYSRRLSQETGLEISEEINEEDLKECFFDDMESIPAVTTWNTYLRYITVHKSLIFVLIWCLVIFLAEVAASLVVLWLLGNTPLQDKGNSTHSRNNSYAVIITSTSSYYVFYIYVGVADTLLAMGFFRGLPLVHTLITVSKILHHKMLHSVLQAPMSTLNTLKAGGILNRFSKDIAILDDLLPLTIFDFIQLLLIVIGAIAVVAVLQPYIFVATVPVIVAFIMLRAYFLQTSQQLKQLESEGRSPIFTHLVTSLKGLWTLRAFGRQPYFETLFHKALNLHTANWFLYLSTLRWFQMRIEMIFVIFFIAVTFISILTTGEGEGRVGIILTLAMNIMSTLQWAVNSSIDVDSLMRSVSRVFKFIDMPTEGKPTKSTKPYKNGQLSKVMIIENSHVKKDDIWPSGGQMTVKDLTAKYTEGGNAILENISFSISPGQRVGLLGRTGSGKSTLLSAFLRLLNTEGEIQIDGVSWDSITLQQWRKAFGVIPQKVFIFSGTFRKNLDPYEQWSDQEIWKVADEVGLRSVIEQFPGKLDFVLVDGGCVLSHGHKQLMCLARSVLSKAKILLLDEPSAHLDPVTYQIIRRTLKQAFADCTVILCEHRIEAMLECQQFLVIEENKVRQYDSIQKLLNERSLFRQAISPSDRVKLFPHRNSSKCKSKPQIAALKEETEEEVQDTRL
The test is described as follows: Protocol 2: FRET membrane potential optical assay (VIPR), identification of correction compounds. The class given is cell-based. The following applies: F508del CFTR modulator activity; compounds of Table 1; read-out: EC30. The method, boiled down:
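Corrector readout: membrane-potential FRET (CC2-DMPE donor, DiSBAC2(3) acceptor) on VIPR II after Cl⁻-free gluconate bath with 10 μM forskolin and 20 μM genistein. Before this, F508del-expressing NIH3T3 cells were exposed to test compound for 16 h at 37 °C without serum; 27 °C incubation served as temperature-correction control.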
Consider `CC1CN(c2ncccc2C(=O)NS(=O)(=O)c2cccc(Nc3ccc(F)c(C#N)c3)n2)C(C)(C)C1` (stereo not drawn) [Compound 2316, N—[[6-(3-cyano-4-fluoro-anilino)-2-pyridyl]sulfonyl]-2-(2,2,4-trimethylpyrrolidin-1-yl)pyridine-3-carboxamide], for which the EC30 – broadly, the concentration needed for an effect of 30% – was below 3 µM. For the molecule `CC1CN(c2ncccc2C(=O)NS(=O)(=O)c2cccc(Nc3ccc4c(c3)OCCO4)n2)C(C)(C)C1` (stereo not drawn) [Compound 2190, N—[[6-(2,3-dihydro-1,4-benzodioxin-6-ylamino)-2-pyridyl]sulfonyl]-2-(2,2,4-trimethylpyrrolidin-1-yl)pyridine-3-carboxamide], the EC30 was below 3 µM. On the same count and under the same terms, under `COc1cccc(Nc2cccc(S(=O)(=O)NC(=O)c3cccnc3N3CC(C)CC3(C)C)n2)n1` (stereo not drawn) [Compound 2420, N—[[6-[(6-methoxy-2-pyridyl)amino]-2-pyridyl]sulfonyl]-2-(2,2,4-trimethylpyrrolidin-1-yl)pyridine-3-carboxamide] stands 3 to 10 µM; under `COc1cc(CO)cc(-c2ccc(C(=O)NS(=O)(=O)c3cccnc3N)c(N3C[C@@H](C)CC3(C)C)n2)c1` [Compound 2065, N-[(2-amino-3-pyridyl)sulfonyl]-6-[3-(hydroxymethyl)-5-methoxy-phenyl]-2-[(4S)-2,2,4-trimethylpyrrolidin-1-yl]pyridine-3-carboxamide], below 3 µM.

As for `CC1CN(c2ncc(-c3ccc(C(F)(F)F)cc3)cc2C(=O)NS(=O)(=O)c2cccc(N)n2)C(C)(C)C1` (stereo not drawn) [Compound 2337, N-[(6-amino-2-pyridyl)sulfonyl]-5-[4-(trifluoromethyl)phenyl]-2-(2,2,4-trimethylpyrrolidin-1-yl)pyridine-3-carboxamide], the concentration for an effect of 30% (EC30) was below 3 µM. Still for that read-out and setting: next, `C[C@@H]1CN(c2nc(-c3cccc(F)c3F)ccc2C(=O)NS(=O)(=O)c2cccnc2N)C(C)(C)C1` [Compound 2291, N-[(2-amino-3-pyridyl)sulfonyl]-6-(2,3-difluorophenyl)-2-[(4S)-2,2,4-trimethylpyrrolidin-1-yl]pyridine-3-carboxamide]: below 3 µM; `CC1CN(c2ncc(-c3ccc(OC(F)(F)F)cc3)cc2C(=O)NS(=O)(=O)c2cccc(N)n2)C(C)(C)C1` (stereo not drawn) [Compound 2649, N-[(6-amino-2-pyridyl)sulfonyl]-5-[4-(trifluoromethoxy)phenyl]-2-(2,2,4-trimethylpyrrolidin-1-yl)pyridine-3-carboxamide]: below 3 µM; `CC(C)COc1ccn(-c2ccc(C(=O)NS(=O)(=O)c3cccnc3N)c(N3CC(C)CC34CCC4)n2)n1` (single isomer, unassigned) [Compound 2194, N-[(2-amino-3-pyridyl)sulfonyl]-6-(3-isobutoxypyrazol-1-yl)-2-(6-methyl-8-azaspiro[3.4]octan-8-yl)pyridine-3-carboxamide]: below 3 µM.

For `Cc1ccc(-c2ccc(C(=O)NS(=O)(=O)c3ccc[nH]c3=O)c(N3C[C@@H](C)CC3(C)C)n2)cc1` [Compound 2438, N-[(2-oxo-1H-pyridin-3-yl)sulfonyl]-6-(p-tolyl)-2-[(4S)-2,2,4-trimethylpyrrolidin-1-yl]pyridine-3-carboxamide], the EC30 is below 3 µM. Still for that read-out and setting: under `CCC(COC)Nc1cccc(S(=O)(=O)NC(=O)c2cccnc2N2CC(C)CC2(C)C)n1` (stereo not drawn) [Compound 2221, N—[[6-[1-(methoxymethyl)propylamino]-2-pyridyl]sulfonyl]-2-(2,2,4-trimethylpyrrolidin-1-yl)pyridine-3-carboxamide] stands 3 to 10 µM; under `CC1CN(c2ncccc2C(=O)NS(=O)(=O)c2cccc(Oc3ccc(-n4cccc4)cc3)n2)C(C)(C)C1` (stereo not drawn) [Compound 2563, N—[[6-(4-pyrrol-1-ylphenoxy)-2-pyridyl]sulfonyl]-2-(2,2,4-trimethylpyrrolidin-1-yl)pyridine-3-carboxamide], below 3 µM.

Turning to `CC1CN(c2ncccc2C(=O)NS(=O)(=O)c2cccc(OCc3ccc(F)cc3F)n2)C(C)(C)C1` (stereo not drawn) [Compound 2099, N—[[6-[(2,4-difluorophenyl)methoxy]-2-pyridyl]sulfonyl]-2-(2,2,4-trimethylpyrrolidin-1-yl)pyridine-3-carboxamide], the EC30 was below 3 µM.

Staying with this test, now noted: Table 3; compounds of Table 1 as modulators of CFTR activity; protocol not stated.
As for `CC(C)COc1cc(F)cc(-c2ccc(C(=O)NS(=O)(=O)c3cccc(N)n3)c(N3CCCC34CCOC4)n2)c1` (stereo not drawn) [Compound 424, N-[(6-amino-2-pyridyl)sulfonyl]-6-(3-fluoro-5-isobutoxy-phenyl)-2-(8-oxa-4-azaspiro[4.4]nonan-4-yl)pyridine-3-carboxamide], the EC30 entry is recorded as “+++ (“+++” means <3 uM)”.

Regarding `Cc1c(Cn2nc(C(C)(C)C)cc2C(=O)NS(=O)(=O)c2cccc3[nH]ccc23)cccc1C(F)(F)F` [Compound 60, 5-tert-butyl-N-(1H-indol-4-ylsulfonyl)-2-[[2-methyl-3-(trifluoromethyl)phenyl]methyl]pyrazole-3-carboxamide], the EC30 entry is given as “+++ (“+++” means <3 uM)”.

With `Cc1cc(C)c(CN2Cc3ccccc3[C@@H]2C(=O)NS(=O)(=O)c2cccc(N)c2)c(C)c1` [Compound 310, (1R)—N-(3-aminophenyl)sulfonyl-2-[(2,4,6-trimethylphenyl)methyl]isoindoline-1-carboxamide], the EC30 result is reported as “+++ (“+++” means <3 uM)”.

With `Cc1cc(F)cc(-c2nc(C(C)(C)C)ccc2C(=O)NS(=O)(=O)c2cccc(N)c2)c1` [Compound 237, N-(3-aminophenyl)sulfonyl-6-tert-butyl-2-(3-fluoro-5-methyl-phenyl)pyridine-3-carboxamide], the EC30 result was “++ (“++” means between 3 uM and 10 uM)”.

Take `COc1ncccc1S(=O)(=O)NC(=O)c1ccc(C2(C)CC2)nc1Oc1c(C)cc(C)cc1C` [Compound 365, N-[(2-methoxy-3-pyridyl)sulfonyl]-6-(1-methylcyclopropyl)-2-(2,4,6-trimethylphenoxy)pyridine-3-carboxamide]: the EC30 result is “+++ (“+++” means <3 uM)”.

For `CC(C)COc1ccc(-c2ccc(C(=O)NS(=O)(=O)c3cccc(N)n3)c(N3[C@H](C)CC[C@@H]3C)n2)cc1` [Compound 563, N-[(6-amino-2-pyridyl)sulfonyl]-2-[(2S,5R)-2,5-dimethylpyrrolidin-1-yl]-6-(4-isobutoxyphenyl)pyridine-3-carboxamide], the EC30 entry is reported as “+++ (“+++” means <3 uM)”. As to `Cc1cc(C)c(Oc2nc(C3(C(F)(F)F)CC3)ccc2C(=O)NS(=O)(=O)c2cccc(N)n2)c(C)c1` [Compound 621, N-[(6-amino-2-pyridyl)sulfonyl]-6-[1-(trifluoromethyl)cyclopropyl]-2-(2,4,6-trimethylphenoxy)pyridine-3-carboxamide], the concentration for an effect of 30% (EC30) result was “+++ (“+++” means <3 uM)”. As to `Cc1cccc(C)c1Cn1nc(-c2ccccc2OC(C)C)cc1C(=O)NS(=O)(=O)c1ccccc1` [Compound 277, N-(benzenesulfonyl)-2-[(2,6-dimethylphenyl)methyl]-5-(2-isopropoxyphenyl)pyrazole-3-carboxamide], the 30% effect concentration (EC30) result is “+++ (“+++” means <3 uM)”. On the same count and under the same terms, under `CCOc1ccc(-c2ccc(C(=O)NS(=O)(=O)c3nccnc3N)c(N3CCC(C)CC3)n2)cc1` [Compound 507, N-(3-aminopyrazin-2-yl)sulfonyl-6-(4-ethoxyphenyl)-2-(4-methyl-1-piperidyl)pyridine-3-carboxamide] stands “+++ (“+++” means <3 uM)”.

For the origin of these results see patent US10758534B2 (Vertex Pharmaceuticals Incorporated, priority 2014, dated 2020).
